Assay results published in patent publication US12655101B2, “Small molecules with antibacterial activity” (NEW MEXICO TECH UNIVERSITY RESEARCH PARK CORPORATION, priority 2021, dated 2026).
Where two headings read alike, the source gives them in different places.

Columns and labels:
[1] = tested on: A. baumannii ATCC 15151; assay: ATP decrease (luciferase); assay type: cell-based; settings: 1xMIC and 2xMIC; 25 minutes
[2] = tested on: A. baumannii ATCC 15151; assay: microbe, parasite or virus in culture; assay type: cell-based; settings: for Evolution of resistance?: Table 7; for MIC: Acinetobacter baumannii
Procedure: A. baumannii ATCC 15151 was grown from a glycerol stock by placing a small volume of cells onto a MHA plate. The MHA plate was incubated overnight at 37° C. A single colony was subsequently used to inoculate MHB to obtain a bacterial broth suspension. The MHB broth suspension was grown at 37° C. on a rotary shaking incubator (100 rpm) for 12 hours. The bacterial cell concentration was adjusted to ˜5×10^5 CFU/mL in MHB or MHB using OD at 595 nm. […] (PAO) and the negative control was non-treated cells. All treatments were performed in triplicate. The plate was incubated for 20 hours at 37° C. in a Tecan plate reader, where the cells were shaken every hour and an OD reading was taken at 600 nm. […] These cells were again plated in a 96-well plate and incubated as before. This was performed a total of 30 days.

[3] = tested on: HeLa cells; assay: HeLa cell toxicity IC50 (MTT); assay type: cell-based; settings: Homo sapiens, 10% FBS
Procedure: HeLa cells: HeLa cells were trypsinized and counted in number of cells/mL using a hemocytometer. Cells were then plated at 4×10^3 HeLa cells/100 μL in tissue culture-treated 96-well plates in DMEM+1% penicillin/streptomycin (P/S)+10% FBS. HeLa cells were treated with 100 μM of a compound of interest and serially diluted two-fold. Samples were also prepared with no treatment, 1% DMSO, and 100 μM PAO. The cells were incubated for 48 hours at 37° C. in a humidified incubator with 5% CO2. 10% v/v MTT reagent (5 mg/mL stock) was added to each sample, and the samples were incubated for 2 hours before removing the supernatant and solubilizing the samples in 100 μL DMSO. OD readings were obtained at 595 nm. IC50 values were reported.

[4] = tested on: A. baumannii ATCC BAA-1797; assay: MIC on A. baumannii ATCC BAA-1797; assay type: cell-based; settings: Acinetobacter baumannii
How it was run: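 Cells adjusted to ~5×10^5 CFU/mL in MHB or MHB with 10%, 20% or 40% FBS, treated with two-fold serial compound dilutions in glass tubes and incubated 18 hours at 37° C. Growth read visually or by MTT (10% v/v, 10 min) with OD at 595 nm.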

[5] = tested on: MRSA ATCC BAA-44; assay: MIC on MRSA ATCC BAA-44; assay type: cell-based, S. aureus; settings: Staphylococcus aureus
How it was run: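 Inoculum ~5×10^5 CFU/mL in Mueller-Hinton broth with 0, 10, 20 or 40% FBS; compound two-fold serially diluted from 100 μM. Incubated 18 h at 37° C, read visually or by MTT colorimetric reaction after 10 min.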

[6] = tested on: A. baumannii ATCC 15151; assay: MIC on A. baumannii ATCC 15151; assay type: cell-based; settings: Acinetobacter baumannii, ATCC15151; A. baumannii ATCC 15151 (heading of Example 9)
[7] = tested on: A. baumannii ATCC 1515; assay: Membrane depolarization detected by DiOC2(3); assay type: cell-based; settings: 1xMIC; for cell membrane depolarization over time: 10, 20, 30, and 50 minutes
[8] = tested on: drug-resistant A. baumannii strains obtained from the CDC and Prevention Antimicrobial Isolate Bank; assay: MIC on drug-resistant A. baumannii strains from the CDC Antimicrobial Isolate Bank; assay type: cell-based; settings: Acinetobacter baumannii
[9] = tested on: A. baumannii ATCC BAA-1797; assay: Colony counts of A. baumannii ATCC BAA-1797 treated with 4xMIC for 16 hours; assay type: cell-based; settings: for kill of A. baumannii ATCC BAA-1797: 4xMIC (24 μM Compound 25, 24 μM Compound 26, 100 μM Compound 27, 48 μM Compound 14, 100 μM Compound 15)
[10] = HeLa, Table 7, read-out: IC50 on HeLa in 10% FBS
[11] = HeLa cells, read-out: IC50 10% FBS
[12] = ATCC 1797 / ATCC BAA-1797, 0% FBS, read-out: MIC (μM) in MDR A. baumannii ATCC 1797 0% FBS
[13] = ATCC 1797 / ATCC BAA-1797, 10% FBS, read-out: MIC (μM) in MDR A. baumannii ATCC 1797 10% FBS
[14] = ATCC 1797 / ATCC BAA-1797, read-out: MIC (μM) in MDR A. baumannii ATCC 1797 40% FBS, 40% FBS
[15] = ATCCBAA1797, 18 h, read-out: MIC in the presence of 40% FBS, A. baumannii ATCC BAA-1797, 40% FBS
[16] = ATCCBAA1797, A. baumannii ATCC BAA-1797, absence of serum, read-out: MIC in the absence of serum
[17] = ATCCBAA1797, Table 7, 10% FBS, read-out: MIC in 10% FBS
[18] = ATCCBAA1797, Table 7, no serum stated, read-out: MIC
[19] = ATCCBAA1797, read-out: MIC in 40% FBS (μM), Table 7, 40% FBS
[20] = MRSA ATCC BAA-44, serum not stated, read-out: MIC
[21] = no serum (note in the cell), read-out: MIC (μM) in MRSA BAA-44
[22] = 18 h, A. baumannii CDC AR033, 18 hours, read-out: MIC values for AR033
[23] = 18 h, A. baumannii CDC AR083, 18 hours, read-out: MIC values for AR083

Row | Compound | ATP decrease [1] | Evolution of resistance? [2] | IC50 [3, 10] [µM] | IC50 [3, 11] [µM] | MIC [4, 12] [µM] | MIC [4, 13] [µM] | MIC [4, 14] [µM] | MIC [4, 15] [µM] | MIC [4, 16] [µM] | MIC [4, 17] [µM] | MIC [4, 18] [µM] | MIC [4, 19] [µM] | MIC [5, 20] [µM] | MIC [5, 21] [µM] | MIC [6] [µM] | cell membrane depolarization over time [7] | MIC [8, 22] [µM] | MIC [8, 23] [µM] | Kill at 4X MIC at 16 hours [9] | kill of A. baumannii ATCC BAA-1797 [9] | further results
1 | Cl.Fc1ccc(N/N=C/c2c[nH]c3cccc(OCc4ccccc4)c23)cc1 [Compound 27, (E)-2-((4-(benzyloxy)-1H-indol-3-yl)methylene)-1-(4-fluorophenyl)hydrazin-1-ium] | caused a decrease in ATP | Yes; 4-fold | 25.8 ± 5.2 | 25.8 ± 5.2 | 12.5 | > 100 | 50 | 25 | 5 | > 100 | 12.5 | 50 | 100 | 100 | 12.5 | caused the most depolarization | 25 | 12.5 | 5-logs | ~5 orders of magnitude | 
2 | Brc1ccc(N/N=C/c2c[nH]c3cccc(OCc4ccccc4)c23)cc1.Cl [Compound 25, (E)-2-((4-(benzyloxy)-1H-indol-3-yl)methylene)-1-(4-bromophenyl)hydrazin-1-ium chloride] | caused a decrease in ATP | No | 30.4 ± 3.3 | 30.4 ± 3.3 | 6 | > 100 | 50 | < 50 | 6 | > 100 | 6 | 50 | 25 | 50 | 3 | depolarized the membrane the least | 6 | < 3 | 5-logs | ~5 orders of magnitude | development of resistance ([2]; 30 days): had not developed resistance; MIC ([2]; ATCC15151, 0 h, read-out: Starting MIC Day 0, A. baumannii ATCC 15151, Day 0): 6 µM; MIC ([2]; ATCC15151, read-out: Final MIC Day 30, A. baumannii ATCC 15151, Day 30): 6 µM; cell membrane depolarization ([7]; 20 μM CCCP, 25 minutes): depolarized the cell membrane; MIC ([8]; AR bank # 33, SAMN04014874, read-out: Compound 25 MIC): 6 µM; MIC ([8]; AR bank # 35, SAMN04014876, read-out: Compound 25 MIC): 12.5 µM; MIC ([8]; AR bank # 36, SAMN04014877, read-out: Compound 25 MIC): 12.5 µM; MIC ([8]; AR bank # 37, SAMN04014878, read-out: Compound 25 MIC): 6 µM; MIC ([8]; AR bank # 45, SAMN04014886, read-out: Compound 25 MIC): 6 µM; MIC ([8]; AR bank # 52, SAMN04014893, read-out: Compound 25 MIC): 6 µM; MIC ([8]; AR bank # 56, SAMN04014897, read-out: Compound 25 MIC): 3 µM; MIC ([8]; AR bank # 63, SAMN04014904, read-out: Compound 25 MIC): 3 µM; MIC ([8]; AR bank # 70, SAMN04014911, read-out: Compound 25 MIC): 3 µM; MIC ([8]; AR bank # 78, SAMN04014919, read-out: Compound 25 MIC): 6 µM; MIC ([8]; AR bank # 83, SAMN04014924, read-out: Compound 25 MIC): 3 µM; MIC ([8]; AR bank # 88, SAMN04014929, read-out: Compound 25 MIC): 6 µM; MIC ([8]; AR bank # 101, SAMN04014942, read-out: Compound 25 MIC): 6 µM; MIC ([8]; AR bank # 102, SAMN04014943, read-out: Compound 25 MIC): 6 µM
